Laboratory results reported in patent US5104880A, “Huperzine a analogs as acetylcholinesterase inhibitors” (Mayo Foundation for Medical Education and Research, priority 1991, dated 1992).
Where two headings read alike, the source gives them in different places.

Key:
AChE [1] = settings: vs (±)-huperzine A; cited from earlier work
animals = settings: studies performed in China; cited from earlier work
mice = settings: cited from earlier work
squirrel monkeys = settings: cited from earlier work
myasthenia gravis = settings: 128 patients; cited from earlier work
AChE [2] = target: T1, AChE (Rattus norvegicus, UniProt P37136); experiment: biochemical
T1 construct: from tissue; host or cells: rat hippocampus, crude homogenate (P2 synaptosome-rich fraction)
Experimental: *Assayed using rat hippocampal crude homogenates over a concentration
in 10% DMSO made up in the incubation buffer medium. In addition, those
hydrochloric acid and sonicated briefly until they dissolved in the
solution. In each case, the control medium always consisted of the same
ingredients as those which were used to dissolve the compound under
The activity of these new compounds was assayed using AChE isolated from rat brain. […] Rats were killed by decapitation and the brains were extirpated rapidly. […] Homogenates were centrifuged at 1000×g for 10 min to remove cell nuclei and heavy debris. […] A portion of this synaptosome-rich fraction was added in triplicate to ice-cold pH 7.4 Krebs-Ringer medium.
Assay of AChE was carried out according to the method described in C. […] Tissue homogenate was incubated for 30 min at 30° C. in a final volume of […] containing 75 mM sodium phosphate buffer, pH 7.0, and 1.5 mM [^14 C]acetylcholine (1.9 mCi/mmol). […] The tubes were vortexed for 10 sec, then centrifuged for 1 min. The bottom aqueous layer was quickly frozen in a dry ice/acetone bath, and the top organic layer aspirated off. Finally, the buffer was allowed to thaw, and a 25 μl portion was counted for the amount of [^14 C]acetate formed. The amount of residual [^14 C]acetylcholine left in the buffer by the extraction step alone was determined by subtracting from the tissue sample values of [^14 C]acetylcholine measured in a blank sample that contained buffer and substrate, but no tissue.

AChE [3] = settings: as AChE inhibitors for treatment of AD; cited from earlier work
Alzheimer's Disease = settings: cited from earlier work
[4] = 0.65 mg/kg i.m.; cited from earlier work
AChE [5] = settings: 0.65 mg/kg i.m.; cited from earlier work

T1 sequence (P37136 32-614): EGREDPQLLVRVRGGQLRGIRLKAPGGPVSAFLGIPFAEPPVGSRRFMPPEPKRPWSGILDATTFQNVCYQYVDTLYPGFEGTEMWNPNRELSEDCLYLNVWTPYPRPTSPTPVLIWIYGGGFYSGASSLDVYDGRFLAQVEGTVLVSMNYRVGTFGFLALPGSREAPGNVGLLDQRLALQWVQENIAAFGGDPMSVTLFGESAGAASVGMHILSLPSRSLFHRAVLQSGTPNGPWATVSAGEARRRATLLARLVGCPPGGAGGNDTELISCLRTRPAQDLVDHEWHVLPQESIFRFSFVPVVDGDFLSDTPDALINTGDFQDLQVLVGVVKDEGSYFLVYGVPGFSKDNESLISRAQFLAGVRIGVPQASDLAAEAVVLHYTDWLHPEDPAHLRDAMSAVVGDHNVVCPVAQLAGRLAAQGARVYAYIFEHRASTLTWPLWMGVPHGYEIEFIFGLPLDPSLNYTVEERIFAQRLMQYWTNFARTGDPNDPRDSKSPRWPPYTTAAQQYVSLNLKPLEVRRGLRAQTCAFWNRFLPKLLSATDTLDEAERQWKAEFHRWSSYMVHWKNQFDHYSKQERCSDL

For `C/C=C1\C2C=C(C)CC1(CN)c1ccc(=O)[nH]c1C2` (stereo not shown), the “times less potent than (±)-huperzine A as an inhibiter of AChE” value (AChE [1]) is listed as “about 166 times”.
In the case of `CC=C1C2C=C(C)CC1(N)c1ccc(=O)[nH]c1C2` (single isomer, unassigned; (-)) [Compound 1a, (-)-Huperzine A], the memory and learning (animals) is listed as “improve memory and learning in animals”, the cognition enhancement (mice) is listed as “effective cognition enhancer” and the cognition enhancement (squirrel monkeys) is listed as “effective cognition enhancer”. The “control of the clinical manifestations of myasthenia gravis (cases)” value (myasthenia gravis) was 99%.
For `CC=C1C2CCCC1(N)c1ccc(=O)[nH]c1C2` (stereo not shown) [Compound 3, C15 -desmethyl-(C8 -C15)dihydrohuperzine], the IC50 (AChE [2]; AChE isolated from rat brain, read-out: IC50 value (AChE)) was 1.3e-05 M and the “fold less potent than natural huperzine A” value (AChE [2]; considering the racemic nature of compound 3) was “at least fifty-fold”.
In the case of `CC1=CC2Cc3[nH]c(=O)ccc3C(N)(C1)/C2=C/Cl` (stereo not shown) [Compound 13, 11-DESMETHYL-11-CHLORO-HUPERZINE A], the IC50 (AChE [2]; AChE IC50 (M)*, Table I, rat hippocampal crude homogenates, 10^-11 M to 10^-3 M, 10% DMSO in buffer) is reported as 8.09e-07 M.
For `CC1=C[C@H]2Cc3[nH]c(=O)ccc3[C@]3(C1)NCCC[C@H]23` [huperzine B], the memory and learning (animals) is given as “improve memory and learning in animals” and the “comparison with THA and physostigmine” value (AChE [3]) is given as “appear superior to THA and physostigmine”.
In the case of `CNC(=O)Oc1ccc2c(c1)[C@]1(C)CCN(C)[C@@H]1N2C` [physostigmine], the cognitive improvement (Alzheimer's Disease) is listed as “modest cognitive improvement”, the side effects [4] is listed as “causes considerable side effects” and the “maximal duration of action (AChE inhibitory action)” value (AChE [5]) is listed as ≤ 60 min.
